PMC2033546, “Effects of somatostatin analogue RC-160 and bombesin/gastrin-releasing peptide antagonists on the growth of human small-cell and non-small-cell lung carcinomas in nude mice” (British Journal of Cancer, 1994)

Assays:
[1] = system: human SCLC cell line H69; test: [3H]Thymidine incorporation assay in H69 cells; type: cell-based; settings: 3 days
Description: (§1) Br. J. Cancer (1994). 70, 886 892 ? Macmillan Press Ltd.. […] Bombesin GRP antagonists. […] Lung carcinoma is the leading cause of cancer-related deaths in the western world. It is estimated that in 1992 there were approximately 168,000 new cases of lung cancer in the US and that about 146,000 deaths occurred from this disease (Boring et al., 1992). […] The growth factors such as bombesin/gastrin-releasing pep- tide (GRP), epidermal growth factor, (EGF), transforming growth factor a (TGF-x) and insulin-like growth factor I(IGF-I) appear to play a role in the proliferation and pro- gression of lung cancer (Cuttitta et al., 1985; Veale et al., 1987; Minuto et al., 1988; Siegfried & Owens, 1988; Macaulay et al., 1990; Tateishi et al., 1991; Damstrup et al., 1992; Sethi & Rozengurt, 1992; Rabiasz et al., 1992; Moody & Cuttitta, 1993). […] Tpi is 2,3,4,9-tetrahydro- Correspondence: A.V. Schally (151). VA Medical Center, 1601 Per- dido Street. New Orleans, LA 70146. USA. Received 1 March 1994; and in revised form 5 July 1994. Br. J. Cancer (1994), 70, 886-892 C Macmillan Press Ltd., 1994 PEPTIDE ANALOGUES IN LUNG CANCER 8U7 lH-pyrido [3,4bjindol-3-carboxylic acid, a conformationally constrained secondary amine derivate of tryptophan and Tac is thiazolidine-4-carboxylic acid. […] Animals Male athymic NCr nulmu nude mice, approximately 6 weeks old on arrival, were obtained from the NCI (Bethesda, MD, USA) and maintained under pathogen-limited conditions. Cell lines The human SCLC cell line NCI-H69, was obtained from the American Type Cell Culture (ATCC), Rockville, MD, USA and the non-SCLC cell line NCI-H157, from Dr H. Oie, NCI-Navy Medical Oncology Branch, Bethesda, MD, USA. These cell lines were cultured in RPMI-1640 medium supple- mented with 4 mM L-glutamine, 50 units ml-I penicilln G sodium, SOigml-' streptomycin sulphate, 0.125pgml-' amphotericin B and 10% fetal bovine serum at 3TC in a humidified 95% air/5% carbon dioxide atmosphere. CeLs were passaged weekly and routinely monitored for myco- plasma contamination using a detection kit (Boehringer- Mannheim, Mannheim, Germany). All culture media com- ponents were purchased from Gibco (Grand Island, NY, USA). Receptor assays Preparation of membranes for receptor studies was described previously (Halmos et al., 1993). Iodinated EGF and IGF-I were purchased from Amersham (Arlington Heights, IL, USA). Radioiodination of other peptides and receptor bind- ing of EGF, IGF-I, somatostatin and bombesin/GRP were performed as previously described (Srkalovic et al., 1989; Szepeshazi et al., 1992). Complete displacement assays on tumour membranes were done only once because of the shortage of tumour material. The LIGAND PC computerised curve-fitting programme of Munson and Rodbard (1980) was used to determine the types of receptor binding, dissociation constant (Kd) values, and the maximal binding capacity (BDj) of receptors. In order to determine the specificity of the binding sites for radiolabelled EGF, IGF-I, somatostatin and bombesin to lung cancer membranes, various structuraly related and unrelated peptides were tested for their ability to inhibit the binding of the tracers. Histological procedure The histological procedures were the same as described previously (Szepeshazi et al., 1991, 1992). The number of mitotic and apoptotic cells per 1,000 cells was determined, and the percentage area of necrosis in tumour sections was examined using the point-counting method (Szepeshazi et al., 1991, 1992), in which the crossing points of an ocular net that coincide with necrosis in various sections are counted. Radiommunoassays Serum levels of growth hormone were determined by double- antibody radioimmunoassay (RIA) using materials supplied by the National Hormone and Pituitary Program of the National Institute of Diabetes and Digestive and Kidney Diseases (NIDDK).

[2] = system: EGF receptors; settings: various cancer lines and cancer specimens; ref Liebow et al., 1992; cited from earlier work
Description: (§2) Br. J. Cancer (1994). 70, 886 892 ? Macmillan Press Ltd..

[3] = system: EGF receptor levels in tumour membranes (pancreatic, prostatic, mammary and colorectal cancers); settings: associated with inhibition of growth of pancreatic, ref Radulovic et al., 1991b, Szepeshazi et al., 1991, 1992, Pinski et al., 1994a; cited from earlier work
Description: as §2

[4] = system: IGF-I receptors in membranes of non-SCLC H157 tumours; test: IGF-I receptor binding on H157 tumour membranes after in vivo treatment; set-up: species or system human
Description: as §1, with “Receptor assays Preparation of membranes for receptor studies was described previously (Halmos et al., 1993). Iodinated EGF and IGF-I were purchased from Amersham (Arlington Heights, IL, USA). Radioiodination of other peptides and receptor bind- ing of EGF, IGF-I, somatostatin and bombesin/GRP were performed as previously described (Srkalovic et al., 1989; Szepeshazi et al., 1992). Complete displacement assays on tumour membranes were done only once because of the shortage of tumour material. The LIGAND PC computerised curve-fitting programme of Munson and Rodbard (1980) was used to determine the types of receptor binding, dissociation constant (Kd) values, and the maximal binding capacity (BDj) of receptors. In order to determine the specificity of the binding sites for radiolabelled EGF, IGF-I, somatostatin and bombesin to lung cancer membranes, various structuraly related and unrelated peptides were tested for their ability to inhibit the binding of the tracers. Histological procedure The histological procedures were the same as described previously (Szepeshazi et al., 1991, 1992).” left out

[5] = system: Bombesin/GRP receptors in membranes of SCLC H69 tumours; test: Bombesin/GRP receptor binding on H69 tumour membranes after in vivo treatment; set-up: species or system human; settings: after in vivo treatment
Description: as §1, with “In order to determine the specificity of the binding sites for radiolabelled EGF, IGF-I, somatostatin and bombesin to lung cancer membranes, various structuraly related and unrelated peptides were tested for their ability to inhibit the binding of the tracers. Histological procedure The histological procedures were the same as described previously (Szepeshazi et al., 1991, 1992).” left out

[6] = system: EGF receptors in membranes of SCLC H69 tumours; test: EGF receptor binding on H69 tumour membranes after in vivo treatment; set-up: species or system human; settings: Table IV, Experiment I (SCLC-H69); tumour membranes after in vivo treatment; control 278; ten-point displacement in triplicate tubes, done once
Description: as §1, with “In order to determine the specificity of the binding sites for radiolabelled EGF, IGF-I, somatostatin and bombesin to lung cancer membranes, various structuraly related and unrelated peptides were tested for their ability to inhibit the binding of the tracers. Histological procedure The histological procedures were the same as described previously (Szepeshazi et al., 1991, 1992).” left out

[7] = system: IGF-I receptors in membranes of SCLC H69 tumours; test: IGF-I receptor binding on H69 tumour membranes after in vivo treatment; set-up: species or system human; settings: Table IV, Experiment I (SCLC-H69), control 294, done once
Description: as §1, with “Receptor assays Preparation of membranes for receptor studies was described previously (Halmos et al., 1993). Iodinated EGF and IGF-I were purchased from Amersham (Arlington Heights, IL, USA). Radioiodination of other peptides and receptor bind- ing of EGF, IGF-I, somatostatin and bombesin/GRP were performed as previously described (Srkalovic et al., 1989; Szepeshazi et al., 1992). Complete displacement assays on tumour membranes were done only once because of the shortage of tumour material. The LIGAND PC computerised curve-fitting programme of Munson and Rodbard (1980) was used to determine the types of receptor binding, dissociation constant (Kd) values, and the maximal binding capacity (BDj) of receptors. In order to determine the specificity of the binding sites for radiolabelled EGF, IGF-I, somatostatin and bombesin to lung cancer membranes, various structuraly related and unrelated peptides were tested for their ability to inhibit the binding of the tracers. Histological procedure The histological procedures were the same as described previously (Szepeshazi et al., 1991, 1992).” left out

[8] = system: EGF receptors in membranes of non-SCLC H157 tumours; test: EGF receptor binding on H157 tumour membranes after in vivo treatment; set-up: species or system human
Description: as §1, with “Receptor assays Preparation of membranes for receptor studies was described previously (Halmos et al., 1993). Iodinated EGF and IGF-I were purchased from Amersham (Arlington Heights, IL, USA). Radioiodination of other peptides and receptor bind- ing of EGF, IGF-I, somatostatin and bombesin/GRP were performed as previously described (Srkalovic et al., 1989; Szepeshazi et al., 1992). Complete displacement assays on tumour membranes were done only once because of the shortage of tumour material. The LIGAND PC computerised curve-fitting programme of Munson and Rodbard (1980) was used to determine the types of receptor binding, dissociation constant (Kd) values, and the maximal binding capacity (BDj) of receptors. In order to determine the specificity of the binding sites for radiolabelled EGF, IGF-I, somatostatin and bombesin to lung cancer membranes, various structuraly related and unrelated peptides were tested for their ability to inhibit the binding of the tracers. Histological procedure The histological procedures were the same as described previously (Szepeshazi et al., 1991, 1992).” left out

[9] = system: SCLC H69 tumours; test: Histology (mitosis, apoptosis, necrosis) of SCLC H69 tumours; type: in vivo, human (xenograft in nude mice)
Description: as §1

[10] = system: Somatostatin receptors in membranes of SCLC H69 tumours; test: Somatostatin receptor binding on H69 tumour membranes after in vivo treatment; set-up: species or system human; settings: Table IV, Experiment I (SCLC-H69); tumour membranes after in vivo treatment; control 450; done once
Description: as §1, with “In order to determine the specificity of the binding sites for radiolabelled EGF, IGF-I, somatostatin and bombesin to lung cancer membranes, various structuraly related and unrelated peptides were tested for their ability to inhibit the binding of the tracers. Histological procedure The histological procedures were the same as described previously (Szepeshazi et al., 1991, 1992).” left out

[11] = system: human SCLC cell line NCI-H69; test: Growth of H69 SCLC xenografts in nude mice; type: in vivo, human (xenograft in male athymic nude mice)
Description: as §1

[12] = system: non-SCLC cell line NCI-H157; test: Growth of H157 non-SCLC xenografts in nude mice; type: in vivo, human (xenograft in male athymic nude mice); settings: RC-160 100 µg/day, RC-3095 20 µg/day
Description: as §1

His(Bz)2D, D-Trp23, D-Phe2, Leu'- GRP(14-27) [RC-3005]
[3H]thymidine incorporation into DNA of H69 cells (in words) ([1]; RC-160 0.001 to 10.0 µg/ml, 5 days, RC-3005 or RC-3009 5.0 and 25.0 µg/ml): significantly suppressed
[3H]Thymidine incorporation ([1]; Table V, 1.0 µg/ml, mean s.e.): 100.0 2.0 per cent of control

[D-Tpi6, Leu'3, *(CH2NH)Leu'4] bombesin (6- 14) [RC-3095]
Effect on phosphorylation of EGF receptors (in words) [2]: inhibits these effects
EGF receptor levels in tumour membranes (in words) [3]: major decrease in EGF receptor levels
IGF-I maximal binding capacity (Bmax) ([4]; Table IV, Experiment II (non-SCLC H157), tumour membranes after in vivo treatment, control 257, done once): 270 fmol mg' protein
IGF-I binding sites on H157 tumours (in words) ([4]; after in vivo treatment): no effect
Concentration of receptors for bombesin/GRP on H69 tumours (in words) [5]: reduced to non-detectable levels
EGF maximal binding capacity (Bmax) [6]: 102 fmol mg' protein
IGF-I maximal binding capacity (Bmax) [7]: 300 fmol mg' protein
EGF maximal binding capacity (Bmax) ([8]; Table IV, Experiment II (non-SCLC H157), tumour membranes after in vivo treatment, control 249, done once): 207 fmol mg' protein
EGF binding capacity on H157 tumours (in words) ([8]; after in vivo treatment): no effect
Extent of necrosis (in words) ([9]; SCLC H69 tumours, point-counting method, differences from control not significant statistically): less exten- sive
Apoptotic index ([9]; Table II, Experiment I (SCLC H69), apoptotic cells per 1,000 cells, control 35.4 ? 2.6, means ? s.e.): 36.5
Mitotic index ([9]; Table II, Experiment I (SCLC H69), mitotic cells per 1,000 cells, control 37.9 ? 2.9, means ? s.e., *P < 0.05 vs control): 28.8
Somatostatin maximal binding capacity (Bmax) [10]: 480 fmol mg-'protein
Tumour volume, final ([11]; Table I, Experiment I (SCLC-H69), 5 weeks s.c. peritumoral, RC-160 100 µg/day, RC-3440, RC-3095, RC-3950-II 20 µg/day per animal, control 249.7 ? 182.3, means ? s.d., ten animals per group, *P<0.05 vs control): 80.2 mm³
Tumour weight ([11]; Table I, Experiment I (SCLC-H69), 5 weeks s.c. peritumoral, RC-160 100 µg/day, antagonists 20 µg/day per animal, control 0.27 ? 0.19, means ? s.d., *P<0.05 vs control): 0.081 0.06* g
Tumour doubling time ([11]; Table I, Experiment I (SCLC-H69), 5 weeks, RC-160 100 µg/day, antagonists 20 µg/day per animal s.c., control 7.5): 12.2 days
Growth of H69 SCLC tumours (in words) ([11]; s.c. peritumorally, RC-160 100 µg, bombesin/GRP antagonists 20 µg per animal per day, 5 weeks): inhibited the growth of H69 SCLC tumours
Growth of H157 non-SCLC tumours (in words) ([12]; 4 weeks s.c., SB-75 100 µg/day per animal, vs control): No significant reduction in final tumour volume, tumour weight and tumour growth
Tumour volume, final ([12]; Table I, Experiment II (non-SCLC H157), 4 weeks s.c. peritumoral, SB-75 100 µg/day per animal, control 1580.3 ? 455.7, means ? s.d., ten animals per group, *P<0.05 vs control): 913 mm³
Tumour doubling time ([12]; Table I, Experiment II (non-SCLC H157), 4 weeks s.c., SB-75 100 µg/day, control 3.88): 4.42 days
